Test system: high-risk stage II and III early breast cancer
Assay: I-SPY2 neoadjuvant platform trial: pCR rate by arm within receptor or response-predictive subtype
Format: in vivo, women
From the text: I-SPY2 is an ongoing, open-label, adaptive, randomized phase II, multicenter trial of neoadjuvant therapy for early-stage breast cancer (NCT01042379; IND 105139). It is a platform trial evaluating multiple investigational arms in parallel against a common standard of care control arm. The primary endpoint is pCR (ypT0/is, ypN0), defined as the absence of invasive cancer in the breast and regional nodes at the time of surgery. As I-SPY2 is modified intent-to-treat, patients receiving any dose of study therapy are considered evaluable; those who switch to non-protocol therapy, progress, forgo surgery, or withdraw are deemed ‘non-pCR’. Secondary endpoints include residual cancer burden (RCB) and event-free and distant relapse-free survival (EFS and DRFS) (Symmans et al., 2007)
Assessments at screening establish eligibility and classify participants into subtypes defined by hormone receptor (HR) status, HER2, and 70-gene signature (MammaPrint®) status (Cardoso et al., 2016; Piccart et al., 2021). Adaptive randomization in I-SPY2 preferentially assigns patients to trial arms according to continuously updated Bayesian probabilities of pCR rates within each biomarker signature; 20% of patients are randomly assigned to the control arm (Berry, 2011). […] An arm can be dropped for futility if the predicted probability of success in a future 300-patient, 1:1 randomized, phase 3 trial drops below 10%, or graduate for efficacy if the probability of success reaches 85% or greater in any biomarker signature. The clinical control arm for the efficacy analysis uses patients randomized throughout the entire trial. […] During the design of each new experimental arm the investigators together with the pharmaceutical sponsor decide in which of the 10 a priori defined biomarker signatures the drug will be tested. Upon entry to the trial, participants are dichotomized into hormone receptor (HR) negative versus positive, HER2 positive versus negative, and MammaPrint High1 [MP1] versus High2 [MP2] status.
This correlative study involved 987 women with high-risk stage II and III early breast cancer who were enrolled in 10 arms of I-SPY2: the first 9 experimental arms that completed evaluation and the control arm as shown in the schema of FIG. 1A. […] For HER2+ patients, N was administered instead of H, whereas M and trebananib were administered in addition to H. Dose reductions and toxicity management were specified in the protocol. Adverse events were collected according to the NCI Common Terminology Criteria for Adverse Events (CTCAE) version 4.0. After completion of AC, patients underwent lumpectomy or mastectomy and nodal sampling, with choice of surgery at the discretion of the treating surgeon. Detailed descriptions of the design, eligibility, and efficacy of these 9 experimental arms of the I-SPY2 trial have been reported previously (Chien et al., 2019; Clark et al., 2021; Nanda et al., 2020; Park et al., 2016; Pusztai et al., 2021; Rugo et al., 2016).
A major goal of a response-predictive schema is to increase the pCR rate in the population and to maximize the probability of pCR for an individual patient (R2).

With `NC1(c2ccc(-c3nc4ccn5c(=O)[nH]nc5c4cc3-c3ccccc3)cc2)CCC1` [MK2206, 8-[4-(1-aminocyclobutyl)phenyl]-9-phenyl-2H-[1,2,4]triazolo[3,4-f][1,6]naphthyridin-3-one] the pCR rate (HER2+/BP-HER2 or BP-Basal patients (RPS-5)) was 48%, the pCR rate (HER2+/BP-Luminal class (RPS-5)) was 60% and the pCR rate (HER2-/Immune-/DRD- (RPS-5)) was 20%. For the same compound, the pCR rate (RPS-7 S2: HER2+/BP Luminal) was 60%, the pCR rate (RPS-7 S6: HER2=0/Immune-/DRD-) was 20% and the pCR rate (RPS-7 S7: HR+HER2low/Immune-DRD-) was 20%.
With `CCOc1cc2ncc(C#N)c(Nc3ccc(OCc4ccccn4)c(Cl)c3)c2cc1NC(=O)/C=C/CN(C)C` [N, neratinib] the pCR rate (RPS-7 S6: HER2=0/Immune-/DRD-) was 20%.
For ganitumab, the pCR rate (RPS-7 S4: HR-/HER2low/Immune-/DRD-) was 40%.
pembrolizumab was tested, and the pCR rate (HER2-/Immune+ (RPS-5)) was 79%, the pCR rate (HR+HER2- receptor subtype) was 30% and the pCR rate (RPS-7 S3: HER2=0.or.low/Immune+) was 79%. For the same compound, the pCR rate (TN receptor subtype) was 66%, the pCR rate (TN, Immune+ patients) was 89% and the pCR rate (TN, Immune+/DRD+ class) was 92%. The pCR rate (TN, Immune+/DRD- class) was 80% and the pCR rate (TN, Immune-/DRD+ class) was 33%.
With pertuzumab the pCR rate (HER2+/BP-Luminal class (RPS-5)) was 8%.
With veliparib/carboplatin [VC] the pCR rate (HER2-/Immune-/DRD+ (RPS-5)) was 60%, the pCR rate (RPS-7 S5: HER2=0.or.low/Immune-/DRD+) was 60% and the pCR rate (TN, DRD+ patients) was 75%. For the same compound, the pCR rate (TN, Immune+/DRD+ class) was 74% and the pCR rate (TN, Immune-/DRD+ class) was 80%.
